PubChem BioAssay AID248 (DTP/NCI, 2004)
Values joined by “and” are separate entries in the source; they are usually repeats but may differ in a detail not shown here. Identical values can stand only once. Toxic doses and inconclusive results are not listed.

System: L1210 leukemia ip in BDF1 mice, survival T/C
Assay: NCI In Vivo Anticancer Drug Screen. Data for tumor model L1210 Leukemia (intraperitoneal) in B6D2F1 (BDF1) mice
Details: higher = longer survival
Procedure, shortened: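 Tumor was transplanted into mice, which were then dosed with test compound or vehicle alone. Survival was recorded for each group, and the treated figure was expressed relative to the control figure.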

[1] = endpoint: mean survival time, dose: 100.0 mg/kg/injection, schedule: Q04DX003 (ip), vehicle: saline with Tween-80
[2] = endpoint: mean survival time, dose: 200.0 mg/kg/injection, schedule: Q04DX003 (ip), vehicle: saline with Tween-80
[3] = endpoint: mean survival time, dose: 400.0 mg/kg/injection, schedule: Q04DX003 (ip), vehicle: saline with Tween-80

S=P(N1CC1)(N1CC1)N1CC1
T/C (endpoint: mean survival time, dose: 0.19 mg/kg/injection, schedule: Q01DX009 (ip), vehicle: saline): 103 % of control and 104 % of control | T/C (endpoint: mean survival time, dose: 0.3 mg/kg/injection, schedule: Q01DX Z (ip), vehicle: carboxymethylcellulose (CMC)): 106 % of control | T/C (endpoint: mean survival time, dose: 0.38 mg/kg/injection, schedule: Q01DX009 (ip), vehicle: saline): 104 % of control and 111 % of control | T/C (endpoint: mean survival time, dose: 0.6 mg/kg/injection, schedule: Q01DX Z (ip), vehicle: carboxymethylcellulose (CMC)): 101 % of control | T/C (endpoint: mean survival time, dose: 0.75 mg/kg/injection, schedule: Q01DX009 (ip), vehicle: saline): 107 % of control and 120 % of control | T/C (endpoint: mean survival time, dose: 1.0 mg/kg/injection, schedule: Q01DX001 (ip), vehicle: saline): 95 % of control (2×) and 119 % of control | T/C (endpoint: mean survival time, dose: 1.0 mg/kg/injection, schedule: Q01DX001 (oral), vehicle: saline): 98 % of control and 105 % of control | T/C (endpoint: mean survival time, dose: 1.0 mg/kg/injection, schedule: Q01DX009 (ip), vehicle: saline): 98 % of control and 119 % of control | T/C (endpoint: mean survival time, dose: 1.0 mg/kg/injection, schedule: Q04DX002 (ip), vehicle: saline): 102 % of control and 121 % of control | T/C (endpoint: mean survival time, dose: 1.0 mg/kg/injection, schedule: Q04DX003 (ip), vehicle: saline): 96 % of control and 104 % of control and 116 % of control | T/C (endpoint: mean survival time, dose: 1.2 mg/kg/injection, schedule: Q01DX Z (ip), vehicle: carboxymethylcellulose (CMC)): 109 % of control | T/C (endpoint: mean survival time, dose: 1.25 mg/kg/injection, schedule: Q01DX Z (ip), vehicle: saline): 118 % of control | T/C (endpoint: mean survival time, dose: 1.5 mg/kg/injection, schedule: Q01DX010 (oral), vehicle: carboxymethylcellulose (CMC)): 113 % of control | T/C (endpoint: mean survival time, dose: 1.56 mg/kg/injection, schedule: Q01DX009 (ip), vehicle: saline): 102 % of control and 117 % of control | T/C (endpoint: mean survival time, dose: 1.65 mg/kg/injection, schedule: Q01DX001 (ip), vehicle: saline): 104 % of control | T/C (endpoint: mean survival time, dose: 2.0 mg/kg/injection, schedule: Q01DX001 (ip), vehicle: saline): 97 % of control and 103 % of control and 114 % of control | T/C (endpoint: mean survival time, dose: 2.0 mg/kg/injection, schedule: Q01DX001 (oral), vehicle: saline): 98 % of control and 102 % of control | T/C (endpoint: mean survival time, dose: 2.0 mg/kg/injection, schedule: Q01DX009 (ip), vehicle: saline): 108 % of control | T/C (endpoint: mean survival time, dose: 2.0 mg/kg/injection, schedule: Q04DX002 (ip), vehicle: saline): 101 % of control and 107 % of control | T/C (endpoint: mean survival time, dose: 2.0 mg/kg/injection, schedule: Q04DX003 (ip), vehicle: saline): 102 % of control and 109 % of control and 116 % of control | T/C (endpoint: mean survival time, dose: 2.4 mg/kg/injection, schedule: Q01DX Z (ip), vehicle: carboxymethylcellulose (CMC)): 121 % of control and 123 % of control | T/C (endpoint: mean survival time, dose: 2.5 mg/kg/injection, schedule: Q01DX001 (ip), vehicle: saline): 110 % of control | T/C (endpoint: mean survival time, dose: 2.5 mg/kg/injection, schedule: Q01DX Z (ip), vehicle: saline): 120 % of control | T/C (endpoint: mean survival time, dose: 3.0 mg/kg/injection, schedule: Q01DX001 (ip), vehicle: saline): 106 % of control | T/C (endpoint: mean survival time, dose: 3.0 mg/kg/injection, schedule: Q01DX010 (oral), vehicle: carboxymethylcellulose (CMC)): 115 % of control | T/C (endpoint: mean survival time, dose: 3.6 mg/kg/injection, schedule: Q01DX Z (ip), vehicle: carboxymethylcellulose (CMC)): 118 % of control | T/C (endpoint: mean survival time, dose: 3.8 mg/kg/injection, schedule: Q01DX001 (ip), vehicle: saline): 110 % of control | T/C (endpoint: mean survival time, dose: 4.0 mg/kg/injection, schedule: Q01DX001 (ip), vehicle: saline): 97 % of control and 106 % of control and 111 % of control | T/C (endpoint: mean survival time, dose: 4.0 mg/kg/injection, schedule: Q01DX001 (oral), vehicle: saline): 101 % of control and 105 % of control | T/C (endpoint: mean survival time, dose: 4.0 mg/kg/injection, schedule: Q01DX009 (ip), vehicle: saline): 160 % of control and 161 % of control and 191 % of control | T/C (endpoint: mean survival time, dose: 5.0 mg/kg/injection, schedule: Q01DX Z (ip), vehicle: saline): 102 % of control | T/C (endpoint: mean survival time, dose: 5.7 mg/kg/injection, schedule: Q01DX001 (ip), vehicle: saline): 111 % of control | T/C (endpoint: mean survival time, dose: 6.0 mg/kg/injection, schedule: Q01DX001 (ip), vehicle: saline): 113 % of control and 123 % of control | T/C (endpoint: mean survival time, dose: 6.25 mg/kg/injection, schedule: Q01DX009 (ip), vehicle: saline): 178 % of control | T/C (endpoint: mean survival time, dose: 7.5 mg/kg/injection, schedule: Q01DX001 (ip), vehicle: saline): 106 % of control and 118 % of control | T/C (endpoint: mean survival time, dose: 8.0 mg/kg/injection, schedule: Q01DX001 (oral), vehicle: saline): 105 % of control and 117 % of control | T/C (endpoint: mean survival time, dose: 8.0 mg/kg/injection, schedule: Q01DX009 (ip), vehicle: saline): 107 % of control and 113 % of control | T/C (endpoint: mean survival time, dose: 8.0 mg/kg/injection, schedule: Q04DX003 (ip), vehicle: saline): 150 % of control and 179 % of control | T/C (endpoint: mean survival time, dose: 8.7 mg/kg/injection, schedule: Q01DX001 (ip), vehicle: saline): 161 % of control | T/C (endpoint: mean survival time, dose: 11.0 mg/kg/injection, schedule: Q01DX001 (ip), vehicle: saline): 122 % of control | T/C (endpoint: mean survival time, dose: 12.0 mg/kg/injection, schedule: Q01DX009 (ip), vehicle: saline): 95 % of control and 100 % of control | T/C (endpoint: mean survival time, dose: 12.0 mg/kg/injection, schedule: Q01DX010 (oral), vehicle: carboxymethylcellulose (CMC)): 166 % of control | T/C (endpoint: mean survival time, dose: 12.5 mg/kg/injection, schedule: Q01DX009 (ip), vehicle: saline): 118 % of control | T/C (endpoint: mean survival time, dose: 14.0 mg/kg/injection, schedule: Q01DX001 (ip), vehicle: saline): 109 % of control | T/C (endpoint: mean survival time, dose: 15.0 mg/kg/injection, schedule: Q01DX001 (ip), vehicle: saline): 163 % of control and 201 % of control | T/C (endpoint: mean survival time, dose: 16.0 mg/kg/injection, schedule: Q01DX001 (oral), vehicle: saline): 121 % of control | T/C (endpoint: mean survival time, dose: 16.0 mg/kg/injection, schedule: Q04DX003 (ip), vehicle: saline): 104 % of control | T/C (endpoint: mean survival time, dose: 17.0 mg/kg/injection, schedule: Q01DX001 (ip), vehicle: saline): 152 % of control and 155 % of control and 163 % of control | T/C (endpoint: mean survival time, dose: 20.0 mg/kg/injection, schedule: Q01DX001 (ip), vehicle: saline): 163 % of control | T/C (endpoint: mean survival time, dose: 22.0 mg/kg/injection, schedule: Q01DX001 (ip), vehicle: saline): 191 % of control | T/C (endpoint: mean survival time, dose: 23.0 mg/kg/injection, schedule: Q01DX001 (ip), vehicle: saline): 150 % of control | T/C (endpoint: mean survival time, dose: 24.0 mg/kg/injection, schedule: Q01DX010 (oral), vehicle: carboxymethylcellulose (CMC)): 152 % of control | T/C (endpoint: mean survival time, dose: 32.0 mg/kg/injection, schedule: Q04DX002 (ip), vehicle: saline): 94 % of control | T/C (endpoint: median survival time, dose: 1.5 mg/kg/injection, schedule: Q01DX009 (ip), vehicle: distilled water + alcohol): 103 % of control | T/C (endpoint: median survival time, dose: 1.5 mg/kg/injection, schedule: Q01DX009 (ip), vehicle: other): 94 % of control | T/C (endpoint: median survival time, dose: 4.0 mg/kg/injection, schedule: Q01DX009 (ip), vehicle: water): 151 % of control | T/C (endpoint: median survival time, dose: 5.0 mg/kg/injection, schedule: Q01DX009 (ip), vehicle: water): 108 % of control | T/C (endpoint: median survival time, dose: 6.0 mg/kg/injection, schedule: Q01DX009 (ip), vehicle: water): 110 % of control

COc1ccc(CCNC(c2ccccc2)c2ccccc2)cc1OC
T/C (endpoint: mean survival time, dose: 100.0 mg/kg/injection, schedule: Q04DX003 (ip), vehicle: saline): 105 % of control | T/C (endpoint: mean survival time, dose: 200.0 mg/kg/injection, schedule: Q04DX003 (ip), vehicle: saline): 108 % of control | T/C (endpoint: mean survival time, dose: 400.0 mg/kg/injection, schedule: Q04DX003 (ip), vehicle: saline): 105 % of control

CCCNP(=S)(NCCC)NCCC
T/C (endpoint: mean survival time, dose: 50.0 mg/kg/injection, schedule: Q01DX001 (ip), vehicle: other): 96 % of control | T/C (endpoint: mean survival time, dose: 100.0 mg/kg/injection, schedule: Q01DX001 (ip), vehicle: other): 100 % of control | T/C (endpoint: mean survival time, dose: 200.0 mg/kg/injection, schedule: Q01DX001 (ip), vehicle: other): 105 % of control | T/C (endpoint: mean survival time, dose: 400.0 mg/kg/injection, schedule: Q01DX001 (ip), vehicle: other): 100 % of control

[CeH3]
T/C (endpoint: mean survival time, dose: 100.0 mg/kg/injection, schedule: Q04DX003 (sc), vehicle: olive oil, sesame oil, peanut oil): 98 % of control | T/C (endpoint: mean survival time, dose: 200.0 mg/kg/injection, schedule: Q04DX003 (sc), vehicle: olive oil, sesame oil, peanut oil): 108 % of control | T/C (endpoint: mean survival time, dose: 400.0 mg/kg/injection, schedule: Q04DX003 (sc), vehicle: olive oil, sesame oil, peanut oil): 91 % of control

COC1OC(COS(=O)(=O)c2ccc(C)cc2)C(OS(=O)(=O)c2ccc(C)cc2)C(OS(=O)(=O)c2ccc(C)cc2)C1OS(=O)(=O)c1ccc(C)cc1 (stereo not given)
T/C [1]: 91 % of control | T/C [2]: 91 % of control | T/C [3]: 90 % of control

CCCC/C=C(\C)CCCCCCCCC (tested in a mixture with another compound)
T/C [1]: 90 % of control | T/C [2]: 89 % of control | T/C [3]: 98 % of control

CC1(C)OC(=O)C(C(=O)O)C1c1ccccc1 (stereo not given)
T/C (endpoint: mean survival time, dose: 100.0 mg/kg/injection, schedule: Q01DX001 (ip), vehicle: saline): 97 % of control | T/C (endpoint: mean survival time, dose: 200.0 mg/kg/injection, schedule: Q01DX001 (ip), vehicle: saline): 94 % of control

COc1ccc(CC2c3cc(OC)c(OC)cc3CC[N+]2(C)C)cc1OC (stereo not given)
T/C (endpoint: mean survival time, dose: 12.5 mg/kg/injection, schedule: Q01DX009 (ip), vehicle: saline sonified): 103 % of control | T/C (endpoint: mean survival time, dose: 25.0 mg/kg/injection, schedule: Q01DX009 (ip), vehicle: saline sonified): 108 % of control | T/C (endpoint: mean survival time, dose: 50.0 mg/kg/injection, schedule: Q01DX001 (ip), vehicle: Klucel (hydroxypropylcellulose) (HPC)): 95 % of control | T/C (endpoint: mean survival time, dose: 50.0 mg/kg/injection, schedule: Q01DX009 (ip), vehicle: saline sonified): 102 % of control
